According to patent US5458874A, “Method of increasing monocyte chemotaxis with CAP37 and monocyte chemotactic portions thereof” (Emory University, priority 1992, dated 1995):
Entries after “also recorded” stand apart in the source; their conditions may differ. Where two headings read alike, the source gives them in different places.

Key:
[1] = test system: Salmonella typhimurium SH9178; assay: Bactericidal assay; type: cell-based; conditions: for bactericidal effect on Salmonella typhimurium SH9178 (in words): FIGS. 12, 13, 15, 1 hour at 37° C.; for % survival with peptide 20-44: Salmonella SH9178
Method: (§1) An overnight culture of Salmonella typhimurium (or other microorganism of interest, if desired) is set up by inoculating one colony in 5 ml of LB Broth (LB Broth consists of 10 g BACTO tryptone (DIFCO), 5 g BACFO yeast (DIFCO) and 5 g NaCl made up to 1 L with endotoxin free water; add 15 g of BACTO agar (DIFCO) to this broth to make LB agar (autoclave). The culture is incubated at 37° C. with rotation. 100 μl of this overnight culture is then transferred to 5 ml of fresh LB Broth and incubated at 37° C. with rotation for 2 hours. Four ml of this log phase culture is then transferred to a sterile cuvette and the optical density is read at […]. Dilutions of the microorganism are then made in tryptone saline (5 g BAOTO tryptone (DIFCO) and 5 g NaCl made up to 1 L with endotoxin free water, pH 5.5) to give a final concentration of 5×10^3 organisms/ml (an O.D. reading of 0.25 at 520 mm is equivalent to 1×10^8 organisms/ml). The microorganisms are placed at 4° C. until ready to be used.
(§2) The stock solutions of peptides are stored at -20° C. at concentrations of 1 mg/ml of endotoxin-free water. The peptide is diluted out in tryptone saline to the desired concentration. 100 μl of the peptide is added to each well of the microtitre plate (Corning) and then 100 μl of the bacterial suspension (well vortexed) is added. Each assay point is set up in triplicate. 100 μl of a control, consisting of bacteria and tryptone saline (T=0) in the absence of peptide is plated out on LB agar plates. The microliter plate is then incubated at 37° C. for 1 hour. At the end of the incubation time, 100 μl of each sample is plated out on LB agar plates. The T=60 control (consisting of bacteria and tryptone saline in the absence of peptide) is plated out last. The plates are incubated overnight, and the number of colony forming units (CFU) are determined.
(§3) The % killed is determined as follows: [formula]

[2] = test system: gram negative and gram positive bacteria; assay: Bactericidal assay, assortment of bacteria (FIG. 14); type: cell-based
Method: as §1
(§4) The stock solutions of peptides are stored at -20° C. at concentrations of 1 mg/ml of endotoxin-free water. The peptide is diluted out in tryptone saline to the desired concentration. […] The plates are incubated overnight, and the number of colony forming units (CFU) are determined.
as §3

Re LPS from Salmonella = assay: Neutralization of LPS activity, limulus amebocyte lysate (LAL) assay, Re LPS; type: biochemical
Method: (§5) Further, the neutralization of LPS activity, as assayed by the limulus amebocyte lysate (LAL) assay, by CAP37 was measured. CAP37 was diluted to the desired concentrations (from 6.2 ng/ml to 500 ng/ml) in geys buffered saline pH 7 (GIBCO). To this wild type LPS (RIBI IMMUNOCHEM) or Re LPS from Salmonella (David Morrison, Kansas Medical Center) was added so that the final concentrations were 0.1, 0.5, 1.0 and 2.0 ng/ml LPS. The tubes were incubated at 37° C. for between 30 to 60 minutes and then assayed in the chromogenic LAL assay, using polymyxin E as a control.
(§6) As discussed in Example 11, peptides can be screened for lipopolysaccharide neutralizing capacity using the LAL assay also. The CAP37 peptide was diluted to the desired concentrations (from 125 ng/ml to 4000 ng/ml) in geys buffered saline pH 7 (GIBCO). To this is added the wild type LPS (RIBI IMMUNOCHEM) or Re LPS from Salmonella (David Morrison, Kansas Medical Center) so that the final concentration is 0.1, 0.5, and 1.0 ng/ml LPS. The tubes were incubated at 37° C. for between 30 to 60 minutes and then assayed in the chromogenic LAL assay.

P. mirabilis Re45 = assay: Bactericidal assay; type: cell-based, Proteus mirabilis; conditions: for % survival with peptide 20-44: P. mirabilis Re45
Method: as §1, §2, §3

wild type LPS = assay: Neutralization of LPS activity, limulus amebocyte lysate (LAL) assay, wild type LPS; type: biochemical
Method: as §5, §6

E. faecalis = assay: Bactericidal assay; type: cell-based, Enterococcus faecalis
Method: as §1, §2, §3

E. coli = assay: Bactericidal assay; type: cell-based, Escherichia coli
Method: as §1, §2, §3

L monocytogenes = assay: Bactericidal assay; type: cell-based, Listeria monocytogenes
Method: as §1, §4, §3

[3] = test system: Salmonella typhimurium SH9178; assay: Inhibition of the bactericidal effect by LPS and Lipid A; type: cell-based; conditions: peptide at 200 μg/ml, FIG. 16
Method: To identity, those peptides derived from CAP37 having bacterial LPS-binding activity, the peptide fragments having bactericidal activity were tested to ascertain whether LPS or Lipid A inhibited that activity.

Salmonella SH7426 = assay: Bactericidal assay; type: cell-based
Method: as §1, §2, §3

S. aureus 502A = assay: Bactericidal assay; type: cell-based, Staphylococcus aureus
Method: as §1, §4, §3

Salmonella LT2 = assay: Bactericidal assay; type: cell-based, Salmonella typhimurium; conditions: for % survival with peptide 20-44: Salmonella LT2; for bactericidal activity (in words): Salmonella typhimurium LT2
Method: as §1, §2, §3

Salmonella SH7518 = assay: Bactericidal assay; type: cell-based, Salmonella typhimurium; conditions: for % survival with peptide 20-44: Salmonella SH7518
Method: as §1, §2, §3

Strep. pyogenes = assay: Bactericidal assay; type: cell-based, Streptococcus pyogenes
Method: as §1, §4, §3

Ps. aeruginosa = assay: Bactericidal assay; type: cell-based, Pseudomonas aeruginosa; conditions: for % survival with peptide 20-44: Ps. aeruginosa; for bactericidal activity (in words): Pseudomonas
Method: as §1, §2, §3

human monocytes = assay: Monocyte chemotaxis, modified Boyden chamber technique; type: cell-based; conditions: chemoattractant conc. 10^-8 M
Method: Chemotaxis was measured using the modified Boyden chamber technique (Snyderman et al.). The leading front method (Zigmond et al.) was used to assess migration of monocytes and lymphocytes through a 8 μm filter (Millipore Corporation, Bedford, Mass.). PMN chemotaxis was measured using a 3 μm filter (Millipore). The purified CAP37 protein (Example 1) used in chemotaxis assays were endotoxin-free as determined by the Limulus Amoebocyte Lysate Assay (Whittaker Bioproducts, Inc., Walkersville, Md.). The dilutions of CAP37 and N-formyl-methionyl-leucyl-phenylalanine (FMLP) were made in Geys buffer (Gibco) containing 2% endotoxin-free bovine serum albumin (BSA). Geys buffer containing 2% BSA served as the negative control, and a […] solution of FMLP as the positive control.
The chambers were incubated in a humidified atmosphere (6.2% CO2) for 2 hours when testing monocytes and lymphocytes, and for 30 minutes when testing PMNs. The filters were then removed and processed as previously described (Snyderman et al.). The cells were viewed using oil immersion and the distance the cells had migrated into the filter was determined over five different fields on the same slide (Zigmond et al.). Triplicate assays were performed for each experimental point.
The three peptides were tested for chemotactic activity towards monocytes using the modified Boyden Chamber technique described in Example 2. The monocyte chemotactic activity of each peptide fragment at concentrations ranging from 10^-7 to 10^-13 M was compared with Geys buffer (negative control), FMLP 10^-8 M (positive control) and purified CAP37 10^-9 M (positive control). […] The effect of peptide 1 on monocyte chemotaxis is illustrated in Table 2 while the effect of peptide 3 on monocyte chemotaxis is illustrated in Table 3.

26-42aa: synthesized peptide fragment, amino acids 26-42 of the mature CAP37 protein (CGGALIHARFVMTAASC; UniProt P20160 52-68, looked up, fragment)
bactericidal effect on Salmonella typhimurium SH9178 (in words) [1]: minimal activity

1-44aa: synthesized peptide fragment, amino acids 1-44 of the mature CAP37 protein (IVGGRKARPRQFPFLASIQNQGRHFCGGALIHARFVMTAASCFQ; UniProt P20160 27-70, looked up, fragment)
bactericidal effect on Salmonella typhimurium SH9178 (in words) [1]: active but not to the same extent as peptide 20-44aa

peptide 20-44aa: synthesized peptide fragment, amino acids 20-44 of the mature CAP37 protein (NQGRHFCGGALIHARFVMTAASCFQ)
antibacterial activity against gram negative and gram positive bacteria (in words) [2]: active against a wide assortment of bacteria
antibacterial activity against gram negative and gram positive bacteria (in words) ([2]; listed as peptide 20-14aa): active against many other bacteria
neutralization of Re LPS activity (LAL assay) (Re LPS from Salmonella): more dramatic
% survival with peptide 20-44 (P. mirabilis Re45; 50 uM): 26.8%
% survival with peptide 20-44 (P. mirabilis Re45; 75 uM): 29%
bactericidal activity (in words) (P. mirabilis Re45; Pr. mirabilis Re45): more active
neutralization of wild type LPS activity (LAL assay) (wild type LPS): neutralizing its effect to a certain extent
bactericidal activity (in words) (E. faecalis): more active
% survival with peptide 20-44 (E. faecalis; 50 uM): 16.1%
% survival with peptide 20-44 (E. faecalis; 75 uM): 0%
bactericidal activity (in words) (E. faecalis; listed as CAP37 peptide 20-44): most active
bactericidal activity (in words) (E. coli): more active
% survival with peptide 20-44 (E. coli; 50 uM): 24.6%
% survival with peptide 20-44 (E. coli; 75 uM): 0%
bactericidal activity (in words) (E. coli; listed as CAP37 peptide 20-44): most active
% survival with peptide 20-44 (L monocytogenes; 50 uM): 65.8%
% survival with peptide 20-44 (L monocytogenes; 75 uM): 64.6%
inhibition of the bactericidal effect by wild type LPS and Lipid A [3]: wild type LPS, but more particularly Lipid A, can inhibit the bactericidal effect
% survival with peptide 20-44 ([1]; 50 uM): 36.9%
% survival with peptide 20-44 ([1]; 75 uM): 3.5%
bactericidal activity compared with cathepsin G and elastase peptides ([1]; 100 and 125 μM, FIG. 15): very much more bactericidal
bactericidal effect on Salmonella typhimurium SH9178 (in words) [1]: most potent antibiotic of these peptides; also recorded: Strongest activity; also recorded: extremely active
bactericidal effect on Salmonella typhimurium SH9178 (in words) ([1]; listed as CAP37 peptide 20-44): most active
% survival with peptide 20-44 (Salmonella SH7426; 50 uM): 62.5%
% survival with peptide 20-44 (Salmonella SH7426; 75 uM): 31.9%
% survival with peptide 20-44 (S. aureus 502A; 50 uM): 58.7%
% survival with peptide 20-44 (S. aureus 502A; 75 uM): 27.5%
% survival with peptide 20-44 (Salmonella LT2; 50 uM): 28.5%
% survival with peptide 20-44 (Salmonella LT2; 75 uM): 1.7%
bactericidal activity (in words) (Salmonella LT2): more active
bactericidal activity (in words) (Salmonella LT2; listed as CAP37 peptide 20-44): most active
% survival with peptide 20-44 (Salmonella SH7518; 50 uM): 0.6%
% survival with peptide 20-44 (Salmonella SH7518; 75 uM): 0%
bactericidal activity (in words) (Salmonella SH7518; Salmonella typhimurium SH7518): most active
% survival with peptide 20-44 (Strep. pyogenes; 50 uM): 93.4%
% survival with peptide 20-44 (Strep. pyogenes; 75 uM): 78%
% survival with peptide 20-44 (Ps. aeruginosa; 50 uM): 0%
% survival with peptide 20-44 (Ps. aeruginosa; 75 uM): 0%
bactericidal activity (in words) (Ps. aeruginosa): more active
bactericidal activity (in words) (Ps. aeruginosa; listed as CAP37 peptide 20-44): most active

CSCC[C@H](NC=O)C(=O)N[C@@H](CC(C)C)C(=O)N[C@@H](Cc1ccccc1)C(=O)O [FMLP, N-formyl-methionyl-leucyl-phenylalanine, reference compound]
Distance migrated in μm (human monocytes; Table 2): 86.2 μm
Distance migrated in μm (human monocytes; Table 3): 91.4 μm
